Measurements published in paper PMC7359024, “Synthesis, Structure–Activity Relationship, and Mechanistic Studies of Aminoquinazolinones Displaying Antimycobacterial Activity” (ACS Infectious Diseases, 2020).
≈ marks a conversion by molar mass, not a printed value. Like-named read-outs stand apart in the source and are kept apart here.

Legend:
[1] = tested on: Mtb H37Rv strain; assay: MIC90 determination in GASTE-Fe media (broth microdilution); assay type: cell-based, Mycobacterium tuberculosis
[2] = physchem; assay type: physicochemical; conditions: for solubility: kinetic solubility, pH 7.4, HPLC method
Procedure: The kinetic solubility assay was performed using a miniaturised shake flask method. 10 mM stock solutions of each of the test compounds were used to prepare calibration standards (10-220μM) in DMSO. The same 10mM stock solutions were accurately dispensed in duplicate into 96-well plates and the DMSO dried down (MiVac GeneVac, 90 min, 37 °C). Thereafter, the samples were reconstituted (200 µM) in phosphate buffered saline (pH 7.4) and shaken (20 hours, 25 °C). The solutions were filtered and analysed by means of HPLC -DAD (Agilent 1200 Rapid Resolution HPLC with a diode array detector). […]

[3] = assay type: in vitro ADME; conditions: for Metabolic Stability H (% Rem.): human liver microsomes; for Metabolic Stability M (% Rem.): mouse liver microsomes; for Metabolic Stability R (% Rem.): rat liver microsomes
Procedure: 3.2. Microsomal stability
The metabolic stability assay was performed in duplicate in a 96-well micro titre plate. The test compounds (0.1 μM) were incubated individually in mouse, rat and pooled human liver microsomes ((final protein concentration of 0.4 mg/mL; XenoTech, Lenexa, KS ), suspended in 0.1M phosphate buffer (pH 7.4) at 37 °C for predetermined time points, in the presence and absence of the cofactor NADPH (1 mM). Reactions were quenched by adding ice cold acetonitrile containing internal standard (carbamazepine, 0.0236 µg/mL). T he samples were centrifuged and test compound in the supernatant were analysed by means of LC -MS/MS (Agilent Rapid Resolution HPLC, AB SCIEX 4500 MS ). The relative loss of parent compound over time was monitored and plots (concentration vs. time) were prepared per compound to determine the first order rate constant for compound depletion. This was in turn used to calculate half-life, in vitro intrinsic clearance and in vivo hepatic extraction ratio. Metabolite searches were not conducted during the metabolic stability assay. 5

[4] = in vitro; conditions: Chinese hamster
[5] = Mycobacterium tuberculosis, H37RV, 336 h, Mtb H37Rv, replicating conditions, GASTE-Fe media, read 14 days after incubation, read-out: MIC90 GASTE-Fe

Cc1ccc(S(C)(=O)=O)cc1-c1ccc2nc(N)n(-c3ccc(C(F)(F)F)cc3)c(=O)c2c1 [compound 7]
MIC90 [1, 5]: 4.22 µM (≈ 2 µg/mL) | solubility ([2]; 25 °C, pH 7.4, aqueous buffer): 53.3 µM (≈ 25.2 µg/mL) | solubility [2]: 53 µM (≈ 25.1 µg/mL) | fold improvement in solubility ([2]; pH 7.4, relative to comparator analogue): 10 fold | Metabolic Stability H (% Rem.) [3]: 65 % Rem. | Metabolic Stability M (% Rem.) [3]: 90 % Rem. | Metabolic Stability R (% Rem.) [3]: 86 % Rem. | IC50 [4]: > 100 µM

Nc1nc2ccc(-c3cccc(S(=O)(=O)C4CC4)c3)cc2c(=O)n1-c1ccc(C(F)(F)F)cc1 [compound 8]
MIC90 [1, 5]: 2.35 µM (≈ 1.14 µg/mL) | solubility ([2]; 25 °C, pH 7.4, aqueous buffer): 66 µM (≈ 32 µg/mL) | Metabolic Stability H (% Rem.) [3]: 85 % Rem. | Metabolic Stability M (% Rem.) [3]: 97 % Rem. | Metabolic Stability R (% Rem.) [3]: 98 % Rem. | IC50 [4]: 0.021 µM

NC(=O)c1cccc(-c2ccc3nc(N)n(-c4ccc(C(F)(F)F)cc4)c(=O)c3c2)c1 [compound 9]
MIC90 [1, 5]: < 0.244 µM | solubility ([2]; 25 °C, pH 7.4, aqueous buffer): < 5 µM | Metabolic Stability H (% Rem.) [3]: 97/-/- % Rem. | IC50 [4]: > 100 µM

CN(C)C(=O)c1cccc(-c2ccc3nc(N)n(-c4ccc(C(F)(F)F)cc4)c(=O)c3c2)c1 [compound 10]
MIC90 [1, 5]: 2.15 µM (≈ 0.973 µg/mL) | solubility ([2]; 25 °C, pH 7.4, aqueous buffer): 46 µM (≈ 20.8 µg/mL) | Metabolic Stability H (% Rem.) [3]: 85 % Rem. | Metabolic Stability M (% Rem.) [3]: 89 % Rem. | Metabolic Stability R (% Rem.) [3]: 86 % Rem. | IC50 [4]: 0.64 µM

CNC(=O)c1cccc(-c2ccc3nc(N)n(-c4ccc(C(F)(F)F)cc4)c(=O)c3c2)c1 [compound 11]
MIC90 [1, 5]: 0.78 µM (≈ 0.342 µg/mL) | solubility ([2]; 25 °C, pH 7.4, aqueous buffer): < 5 µM | Metabolic Stability H (% Rem.) [3]: 98 % Rem. | Metabolic Stability M (% Rem.) [3]: 100 % Rem. | Metabolic Stability R (% Rem.) [3]: 100 % Rem. | IC50 [4]: 96.3 µM

CN(C)CCNC(=O)c1cccc(-c2ccc3nc(N)n(-c4ccc(C(F)(F)F)cc4)c(=O)c3c2)c1 [compound 13]
MIC90 [1, 5]: 0.82 µM (≈ 0.406 µg/mL) | solubility ([2]; 25 °C, pH 7.4, aqueous buffer): 168 µM (≈ 83.2 µg/mL) | Metabolic Stability H (% Rem.) [3]: 82 % Rem. | Metabolic Stability M (% Rem.) [3]: 56 % Rem. | Metabolic Stability R (% Rem.) [3]: 40 % Rem. | IC50 [4]: > 50 µM

Nc1nc2ccc(-c3cccc(C(=O)NCCO)c3)cc2c(=O)n1-c1ccc(C(F)(F)F)cc1 [compound 14]
MIC90 [1, 5]: 1.03 µM (≈ 0.482 µg/mL) | solubility ([2]; 25 °C, pH 7.4, aqueous buffer): 192 µM (≈ 89.9 µg/mL) | solubility [2]: 193 µM (≈ 90.4 µg/mL) | Metabolic Stability H (% Rem.) [3]: 81 % Rem. | Metabolic Stability M (% Rem.) [3]: 90 % Rem. | Metabolic Stability R (% Rem.) [3]: 83 % Rem. | IC50 [4]: > 50 µM

Nc1nc2ccc(-c3cccc(C(=O)NCCN4CCOCC4)c3)cc2c(=O)n1-c1ccc(C(F)(F)F)cc1 [compound 15, 3-(2-amino-4-oxo-3-(4-(trifluoromethyl)phenyl)-3,4-dihydroquinazolin-6-yl)-N-(2-morpholinoethyl)benzamide]
MIC90 [1, 5]: 1.45 µM (≈ 0.779 µg/mL) | solubility ([2]; 25 °C, pH 7.4, aqueous buffer): < 5 µM | Metabolic Stability H (% Rem.) [3]: 51 % Rem. | Metabolic Stability M (% Rem.) [3]: 59 % Rem. | Metabolic Stability R (% Rem.) [3]: 62 % Rem. | IC50 [4]: 8.77 µM

Nc1nc2ccc(-c3cccc(C(=O)N4CCOCC4)c3)cc2c(=O)n1-c1ccc(C(F)(F)F)cc1 [compound 16, 2-Amino-6-(3-(morpholine-4-carbonyl)phenyl)-3-(4-(trifluoromethyl)phenyl)quinazolin-4(3H)-one]
MIC90 [1, 5]: 4.93 µM (≈ 2.44 µg/mL) | solubility ([2]; 25 °C, pH 7.4, aqueous buffer): 56 µM (≈ 27.7 µg/mL) | Metabolic Stability H (% Rem.) [3]: 71 % Rem. | Metabolic Stability M (% Rem.) [3]: 78 % Rem. | Metabolic Stability R (% Rem.) [3]: 77 % Rem. | IC50 [4]: > 50 µM

Nc1nc2ccc(-c3cccc(C(=O)N4CCSCC4)c3)cc2c(=O)n1-c1ccc(C(F)(F)F)cc1 [compound 18, 2-Amino-6-(3-(thiomorpholine-4-carbonyl)phenyl)-3-(4-(trifluoromethyl)phenyl)quinazolin-4(3H)-one]
MIC90 [1, 5]: 0.656 µM (≈ 0.335 µg/mL) | solubility ([2]; 25 °C, pH 7.4, aqueous buffer): 46 µM (≈ 23.5 µg/mL) | Metabolic Stability H (% Rem.) [3]: 8 % Rem. | Metabolic Stability M (% Rem.) [3]: 22 % Rem. | Metabolic Stability R (% Rem.) [3]: 23 % Rem. | IC50 [4]: > 50 µM

CN1CCN(C(=O)c2cccc(-c3ccc4nc(N)n(-c5ccc(C(F)(F)F)cc5)c(=O)c4c3)c2)CC1 [compound 19]
MIC90 [1, 5]: 1.57 µM (≈ 0.797 µg/mL) | solubility ([2]; 25 °C, pH 7.4, aqueous buffer): 51 µM (≈ 25.9 µg/mL) | Metabolic Stability H (% Rem.) [3]: 97 % Rem. | Metabolic Stability M (% Rem.) [3]: 94 % Rem. | Metabolic Stability R (% Rem.) [3]: 86 % Rem. | IC50 [4]: > 50 µM

Nc1nc2ccc(-c3cccc(C(=O)O)c3)cc2c(=O)n1-c1ccc(C(F)(F)F)cc1 [compound 20]
MIC90 [1, 5]: 112 µM (≈ 47.6 µg/mL) | solubility ([2]; 25 °C, pH 7.4, aqueous buffer): 29 µM (≈ 12.3 µg/mL) | Metabolic Stability H (% Rem.) [3]: 99 % Rem. | Metabolic Stability M (% Rem.) [3]: 98 % Rem. | Metabolic Stability R (% Rem.) [3]: 97 % Rem. | IC50 [4]: > 100 µM

Nc1nc2ccc(-c3cncnc3)cc2c(=O)n1-c1ccc(C(F)(F)F)cc1 [compound 21]
MIC90 [1, 5]: 10 µM (≈ 3.83 µg/mL) | solubility ([2]; 25 °C, pH 7.4, aqueous buffer): 40 µM (≈ 15.3 µg/mL) | Metabolic Stability H (% Rem.) [3]: 94/-/- % Rem. | IC50 [4]: > 100 µM

Nc1nc2ccc(-c3cccnc3)cc2c(=O)n1-c1ccc(C(F)(F)F)cc1 [compound 22]
MIC90 [1, 5]: 0.625 µM (≈ 0.239 µg/mL) | solubility ([2]; 25 °C, pH 7.4, aqueous buffer): 20 µM (≈ 7.65 µg/mL) | Metabolic Stability H (% Rem.) [3]: 68/-/- % Rem. | IC50 [4]: > 100 µM

Cc1cncc(-c2ccc3nc(N)n(-c4ccc(C(F)(F)F)cc4)c(=O)c3c2)c1 [compound 23]
MIC90 ([1]; Mtb H37Rv, replicating conditions, GASTE-Fe media, read 14 days after incubation, read-out: MIC90 GASTE-Fe): 2.5 µM (≈ 0.991 µg/mL) | MIC90 [1, 5]: > 2 µM | solubility ([2]; 25 °C, pH 7.4, aqueous buffer): < 5 µM | Metabolic Stability H (% Rem.) [3]: 87/-/- % Rem. | IC50 [4]: > 100 µM

COc1cncc(-c2ccc3nc(N)n(-c4ccc(C(F)(F)F)cc4)c(=O)c3c2)c1 [compound 24]
solubility ([2]; 25 °C, pH 7.4, aqueous buffer): 40 µM (≈ 16.5 µg/mL) | Metabolic Stability H (% Rem.) [3]: 72/-/- % Rem. | IC50 [4]: > 100 µM

CC(C)(C)c1cccc(-c2ccc3nc(N)n(-c4ccc(C(F)(F)F)cc4)c(=O)c3c2)c1 [compound 26]
MIC90 [1, 5]: 10 µM (≈ 4.37 µg/mL) | IC50 [4]: > 100 µM

CN(C)c1cccc(-c2ccc3nc(N)n(-c4ccc(C(F)(F)F)cc4)c(=O)c3c2)c1 [compound 27]
MIC90 [1, 5]: 2.5 µM (≈ 1.06 µg/mL) | solubility ([2]; 25 °C, pH 7.4, aqueous buffer): 20 µM (≈ 8.49 µg/mL) | Metabolic Stability H (% Rem.) [3]: 37/-/- % Rem. | IC50 [4]: > 100 µM

Nc1nc2ccc(-c3cccc(C(F)(F)F)c3)cc2c(=O)n1-c1ccc(C(F)(F)F)cc1 [compound 28]
MIC90 [1, 5]: 0.75 µM (≈ 0.337 µg/mL) | solubility ([2]; 25 °C, pH 7.4, aqueous buffer): 40 µM (≈ 18 µg/mL) | Metabolic Stability H (% Rem.) [3]: 88/-/- % Rem. | IC50 [4]: > 100 µM

CS(=O)(=O)c1cccc(-c2ccc3c(=O)n(-c4ccc(C(F)(F)F)cc4)c(N)nc3c2)c1 [compound 30]
MIC90 [1, 5]: 1.39 µM (≈ 0.639 µg/mL) | solubility ([2]; 25 °C, pH 7.4, aqueous buffer): < 5 µM | Metabolic Stability H (% Rem.) [3]: 99/99/99 % Rem. | Metabolic Stability M (% Rem.) [3]: 99/99/99 % Rem. | Metabolic Stability R (% Rem.) [3]: 99/99/99 % Rem. | IC50 [4]: > 50 µM

C[S+]([O-])c1cccc(-c2ccc3c(=O)n(-c4ccc(C(F)(F)F)cc4)c(N)nc3c2)c1 (stereo not drawn) [compound 31]
MIC90 [1, 5]: 1.32 µM (≈ 0.585 µg/mL) | solubility ([2]; 25 °C, pH 7.4, aqueous buffer): < 5 µM | Metabolic Stability H (% Rem.) [3]: 98 % Rem. | Metabolic Stability M (% Rem.) [3]: 78 % Rem. | Metabolic Stability R (% Rem.) [3]: 73 % Rem. | IC50 [4]: > 50 µM

C[S+]([O-])c1cccc(-c2ccc3nc(N)n(Cc4ccc(C(F)(F)F)cc4)c(=O)c3c2)c1 (stereo not drawn) [compound 58]
MIC90 ([1]; Mycobacterium tuberculosis, H37RV, 336 h, read-out: MIC90 GAST-Fe): > 31 µM | solubility ([2]; 25 °C, pH 7.4, aqueous buffer): > 100 µM | solubility [2]: 104 µM (≈ 47.6 µg/mL) | Metabolic Stability H (% Rem.) [3]: 52 % Rem. | Metabolic Stability M (% Rem.) [3]: 69 % Rem. | Metabolic Stability R (% Rem.) [3]: 61 % Rem.
